Test: Calculated total uptake into blood and deposition of vitamin D3 from the blood level curves (FIG. 6)
Assay type: in vivo, human
Conditions: for amount of vitamin D3 deposited in the first 24 hours: assuming a total blood volume of 5 liters
From the text: FIG. 6: The upper curves show the calculated total amounts of vitamin D3 arriving in blood of malabsorptive, obese and normal individuals. The lower curves show the experimental blood levels of vitamin D3 expressed in ng/mL of blood. The upper curves are as well expressed in ng/mL of blood, disregarding differing total blood volumes for malabsorptive, obese and normal individuals.
In order to further analyze the results, the shape of the concentration/time-curves describing the observed average blood levels of vitamin D3 was used to approximately calculate its total uptake into blood after dosage. The calculation was based on the assumptions compiled in the comments regarding FIG. 6. Metabolism in terms of the appearance of 25(OH)D3 which was experimentally determined in parallel to vitamin D3 can thereby be regarded as part of the immediately disappearing percentage of the total uptake into blood, and it is reasonable to assume that there is no other relevant metabolic step in this early phase, which has to be taken into account.
FIG. 6 presents the accordingly calculated total uptake and the experimentally determined levels of vitamin D3 for the first 24 hours after dosing. The difference between the upper (calculated) and the lower (experimental) curve represents the sum of metabolism and deposition. Herein the assumption is made that the elimination can be disregarded, because as known to the skilled person there is essentially no elimination of non-metabolized vitamin D3 from blood into urine. Metabolism in the first 24 hours results in all three cases (viz., malabsorptive, obese, and normal subjects) in the consumption of about 2 to 5 ng/mL, viz. a small part of the mentioned calculated difference (compare FIG. 7). No correction relating to said consumption seems necessary for determining the metabolite's observed concentration because the metabolite is rapidly forming a DBP-complex, characterized by a long half-life. However, the fact that the 25(OH)D3 formed must be determined as difference to baseline adds an element of uncertainty and the assumption that no more than a minor part of the 25(OH)D3 formed in this phase may not be absolutely to the point.
wherein the same correction regarding metabolism, as described above, was used for the obese and for the normal individuals, viz. 1.5 ng/mL at 15 hours and 3.5 ng/mL at 24 hours, respectively. These values come from FIG. 7B and are charged with a significant uncertainty—due to the significant experimental error in the early part of the respective curves. But they make sense, if inspecting the subsequent increase which can be more reliably determined. […]
The following relates to the coverage of the surface of adipocytes with vitamin D3. […] A homogenous cell diameter of 50 μm was determined to deliver about the same overall cell-surface one calculates by working with the rather wide experimental distribution of cell sizes as reported by Karin G. Stenkula et al. Thereby it was in the sense of a model consideration assumed that cubes containing large lipid droplet cubes can be used to describe the cells' shape (in other words: cubes of an edge-length of 50 μm enclosing cubes of about the same size were determined to represent a reasonable model for the description of the combined surface of the variable size cells' with their lipid droplets). […]

C=C1CC[C@H](O)C/C1=C/C=C1\CCC[C@]2(C)[C@@H]([C@H](C)CCCC(C)C)CC[C@@H]12 [vitamin D3, cholecalciferol]
R, deposition in fatty tissues in high BMI versus low BMI subjects (after 2½ days, from difference to Cmax and differing blood volumes): 1.05 times
amount of vitamin D3 deposited in the first 24 hours (healthy obese subjects): 92.5 µg
deposition of vitamin D3 (low BMI group, after 2½ days): ~7400 I.U.
amount of vitamin D3 deposited in the first 24 hours (normal subjects): 62.5 µg
deposition in healthy obese versus normal low BMI subjects (time point of 15 hours): 1.5 times

Source: patent US20230248744A1, “25-HYDROXYVITAMIN D2 AND/OR D3 FOR USE IN OBESITY” (CARBOGEN AMCIS B.V., priority 2020, published 2023)
